Results from article PMC11274654 (Biomedicines, 2024).

Assays:
[1] = tested on: Rat Calvarial Osteoblasts (RCOs); assay: ALP assay (osteoblast differentiation) in rat calvarial osteoblasts; type: cell-based
Procedure: Sequential digestion was performed to isolate calvarial osteoblast cells from neonatal rat pups. Briefly, calvariae were harvested from ten to twelve 1–2-day old rat pups, cleaned, and subjected to five sequential enzymatic digestions (0.1% dispase and 0.1% collagenase I) of 10–15 min each, followed by culturing of the harvested cells in α-MEM supplemented with 10% FBS [22].
RCOs were seeded in 24-well plates (1 × 10^4 cells/well), and the cells were treated for 48 h in osteoblast differentiation media (α-MEM supplemented with 10 mM β-glycerophosphate and 50 μg/mL ascorbic acid) with the imidazole group of chemicals (10^−11 M–10^−6 M).
A total of 2 mg/mL of para-Nitrophenyl phosphate in diethanolamine buffer was used to measure the ALP activity at a 405 nm wavelength.

mouse BMSCs (mBMSCs) [2] = assay: ALP activity in mouse bone marrow stromal cells; type: cell-based; details: 1 nM, seven days post-treatment
mouse BMSCs (mBMSCs) [3] = assay: BrdU proliferation assay in mBMSCs; type: cell-based; details: 1 nM
Procedure: Rat and mouse bone marrow stromal cells (BMSCs) were seeded at a density of 4000 cells/well in a 96-well plate for cell proliferation and treated with 1 nM of MTZ for 48 h in a growth medium (α-MEM containing 10% FBS). Following the MTZ treatment, the cells were incubated for 4 h with bromodeoxyuridine (BrdU) before termination. Cell proliferation was assessed at 450 nm using the Roche Diagnostics BrdU ELISA kit, in accordance with the manufacturer’s protocol, using a reference wavelength of 690 nm.

rat BMSCs (rBMSCs) = assay: Nodule mineralization (Alizarin Red S) in rBMSCs; type: cell-based; details: 21 days post-treatment, differentiation medium
Procedure: Rat and mouse BMSCs were seeded at a density of 1 × 10^6 cells/well in a 6-well plate, vehicle or MTZ (1 nM) treatment was conducted, and the media were changed every alternate day for 21 days using a differentiation medium [10% FBS, β-glycerophosphate (10 mM), ascorbic acid (50 µg/mL), and dexamethasone (100 nM) in α-MEM].
Cells were fixed with 10% formalin for 15 min and stained with Alizarin Red for 1 h after 21 days of culture. Moreover, 10% cetylpyridinium chloride (Sigma #C0732) was used to quantify mineralized nodules at a 595 nm wavelength.

[4] = tested on: GSK3β phosphorylation in RCO; assay: Western blotting of p-GSK/GSK in RCO; type: cell-based, rat; details: 10 nM
Procedure: Western blotting was performed as previously described. Briefly, whole-cell extracts (WCEs) were prepared at indicated time points using RIPA lysis buffer, and aliquots of 30 μg protein per lane were loaded and resolved on SDS-PAGE (10%), followed by blotting onto the PVDF membrane (Millipore Inc., Burlington, MA, USA). The membrane was blocked in 1% BSA, followed by immunoblotting with primary antibodies: Runx2 (ab 76956) (1:1000), pGSK (9323S) (1:1000), and GSK (9315S) (1:1000) at 4 °C overnight. Anti-rabbit HRP secondary antibody (Sigma, catalog number A0545) (1:3000) was used for Runx2, pGSK3β, and GSK3β. Bands were detected by incubating the membranes with ECL substrate (Thermo Fisher Scientific, Waltham, MA, USA) and developed on ChemiDoc (Image Quant LAS 4000, GE Healthcare, Hatfield, UK). Blots were re-probed after washing with mild stripping buffer (1.5% Glycine, 0.1% SDS, and 1% Tween 20).

[5] = tested on: β-catenin nuclear translocation in osteoblasts (RCO); assay: Immunofluorescence of β-catenin nuclear translocation in RCO; type: cell-based, rat; details: 10 nM
Procedure: RCOs were grown on Lab-Tek Chamber Slides (Nunc, Penfield, NY, USA) to 40–50% confluence for 24 h. After treatment with MTZ at different time points, cells were fixed with 4% formaldehyde, followed by permeabilization with 0.1% Triton™ X-100 for 15 min, blocked with 2% goat serum for 2 h, and labeled with primary antibody against β-catenin (Cell Signaling Technology, Danvers, MA, USA, catalog number 9562S) (1:100) overnight at 4 °C in a moist chamber. Alexa Fluor® 594 (Abcam, Cambridge, UK, catalog number ab150080) was used as a secondary antibody (1:200 dilution) for 2 h at room temperature. […]

[6] = tested on: femur head strength of OVX rats; assay: OVX osteopenia model, femur head compression test; type: in vivo, SD rats; details: 235 mg/kg oral, 3 months
Procedure: The 10-month-old (265 ± 20 g) SD rats were ovariectomized (OVX) bilaterally and left for 3 months to develop osteopenia. Ovary-intact sham-operated animals were used as a control. A live animal micro-CT was performed to confirm osteopenia, followed by dividing the animals into 3 groups: Sham + vehicle (water, oral), OVX + vehicle (water, oral), and OVX + MTZ (235 mg/kg, oral). Each group had 9 rats, and treatment were administered for 3 months. Calcein (20 mg/kg, s.c.) was injected twice before sacrificing at 10-day intervals. The mechanical compression strength of the femur head was examined by a compression test with a bone strength tester, TK […] (Muromachi Kikai Co., Ltd., Tokyo, Japan), as described before.

Cc1ncc([N+](=O)[O-])n1CCO [Metronidazole]
Activity in ALP Assay (Positive/Negative) ([1]; 48 h): Positive
Effect on ALP activity compared to the control (vehicle) ([1]; 48 h): significantly increased
EC50 ([1]; Rattus norvegicus, Calvarial osteoblast, 48 h in osteoblast differentiation media): 1.2 nM
ALP activity compared to the vehicle group (mouse BMSCs (mBMSCs) [2]): increased
Proliferation (BrdU incorporation) (mouse BMSCs (mBMSCs) [3]): did not affect
Osteogenic differentiation and mineralized nodule formation (rat BMSCs (rBMSCs)): stimulated
GSK3β phosphorylation [4]: increased GSK3β phosphorylation in a time-dependent manner
Time of maximum effect on GSK3β phosphorylation [4]: 15 min
β-catenin nuclear translocation [5]: induced
Energy (femur head compression) [6]: reversed both parameters to sham levels
Maximum power (femur head compression) [6]: reversed both parameters to sham levels
Stiffness (femur head compression) [6]: failed to increase it
